Assay results published in patent US20220306728A1 (priority 2019, published 2022).
pIC50: −log10 of the molar value. Where two headings read alike, the source gives them in different places.

Legend:
Experiment in all cases: microbe, parasite or virus in culture
[1] = test system: H3N2 and H1N1 strains; assay type: cell-based, influenza A virus
[2] = test system: H1N1 virus; assay type: cell-based; conditions: Influenza A virus, H1N1, MDCK
[3] = test system: H3N2 virus; assay type: cell-based; conditions: Influenza A virus, H3N2, MDCK

COC(=O)OCOc1c2n(ccc1=O)N([C@@H]1c3ccccc3SCc3c1ccc(F)c3F)[C@@H]1COCCN1C2=O [baloxavir marboxil, reference compound]
pIC50 ([1]; read-out: IC50): 8.31 to 8.64

CCOC(=O)C1=C[C@@H](OC(CC)CC)[C@H](NC(C)=O)[C@@H](N)C1 [oseltamivir]
pIC50 [2]: 8.04
pIC50 [3]: 8.15

CC(=O)N[C@H]1[C@H]([C@H](O)[C@H](O)CO)OC(C(=O)O)=C[C@@H]1N=C(N)N [zanamivir, reference compound]
pIC50 ([1]; Influenza A virus, MDCK): 7.86 to 7.97
